The test relates to T1, LipS.g.
T1 construct: native extracellular enzyme purified from culture supernatant (heat, ammonium sulfate, Sephadex S-200); about 50 kDa SDS-PAGE, 53,262 Da MALDI-TOF
Briefly: pH-stat titrimetry, Lineweaver-Burk. The test is classed as biochemical, Streptomyces gobitricini. The conditions noted are these: pH 9.0, 50°C, triglyceride emulsion, apparent Km. From the text:
pH-stat titrimetry, Lineweaver-Burk on LipS.g

The values that follow come from paper PMC12122756, “Versatile biocatalyst: lipase from Streptomyces gobitricini for ester synthesis and detergent innovation” (Frontiers in Bioengineering and Biotechnology, 2025).

Where two headings read alike, the source gives them in different places.

Regarding `CCCC(=O)OCC(COC(=O)CCC)OC(=O)CCC` [TC4, Tributyrin], where the note is “read-out: Lipase activity (%) / TC4”, the Km is 26.7 ± 0.063 mM. In the case of `CCCCCCCC(=O)OCC(COC(=O)CCCCCCC)OC(=O)CCCCCCC` [TC8, trioctanoin], the Km (read-out: TC8) turned out to be 13.22 ± 0.106 mM. Take `CCCCCCCC/C=C\CCCCCCCC(=O)OCC(COC(=O)CCCCCCC/C=C\CCCCCCCC)OC(=O)CCCCCCC/C=C\CCCCCCCC` [TC18, triolein]: the Km (read-out: TC18) came out at 6.45 ± 0.289 mM.
